Inhibition data for 19 compounds are collected here from patent US4065456A, “Glycerol derivatives of quinoline carbostyryl and isocarbo styryl” (Otsuka Pharmaceutical Co., Ltd., priority 1973, dated 1977).

The test system of test [1] is ADP-Induced Aggregation In Rabbit Platelets. Put plainly: Inhibition of ADP-induced aggregation in rabbit platelets (aggregometer, PRP). Type of test: cell-based. The settings on record: Oryctolagus cuniculus, Platelet, ADP 7.5 × 10^-5 M, PRP 300,000 platelets/mm^3; for inhibition at 100 µM: concentration 10^-4 M; for inhibition at 1 µM: concentration 10^-6 M; for inhibition at 0.01 µM: concentration 10^-8 M; for inhibition at 10 µM: concentration 10^-5 M. The method, then:
(§1) The inhibitory activity of some compounds of this invention and the method for determination of the activity are described hereinafter in greater detail.
(§2) The aggregation inhibitory activity was determined using an AG-II type aggregometer (made by Bryston Manufacturing Co.). A blood sample was withdrawn from rabbits as a mixture of sodium citrate and whole blood in a proportion of 1:9 by volume and centrifuged at 1000 rpm for 10 minutes to obtain a platelet rich plasma (PRP). The resulting PRP was separated, and the remaining blood sample was further centrifuged at 3000 rpm for 15 minutes to obtain a platelet poor plasma (PPP).
(§3) The number of platelets in the PRP was counted in accordance with the Brecher-Clonkite Method, and the PRP was diluted with the PPP to prepare a PRP sample containing platelets in an amount of 300,000/mm^3 for an adenosine diphosphate (ADP)-induced aggregation test and a PRP sample containing platelets in an amount of 450,000/mm^3 for a collagen-induced aggregation test.
(§4) 0.01 ml of a solution of a test compound having a predetermined concentration (as shown in the Tables below) was then added to 0.6 ml of the PRP sample obtained above and the mixture was incubated at a temperature of 37° C for 1 minute. Then 0.07 ml of an ADP or collagen solution was added to the mixture. The mixture was then subjected to a transmittance determination and changes in the transmittance of the mixture were recorded using aggregometer at a stirrer rotation rate of 1100 rpm. In this test, Owren Veronal buffer (pH 7.35) was used for the preparation of solutions of ADP, collgen and the test compounds. ADP was adjusted to a concentration of 7.5 × 10^-5 M, and the collagen solution was prepared by triturating 100 mg of collagen with 5 ml of the above buffer and the supernatant obtained was used as a collagen inducer. Adenosine and acetylsalicylic acid were used as controls for the ADP-induced aggregation test and the collagen-induced aggregation test, respectively. The aggregation inhibitory activity was determined in terms of the percent inhibition (%) with respect to the aggregation ratio of controls. The aggregation ratio can be calculated by the following equation: [formula] Wherein:
(§5) "a" is the optical density of the PRP,
(§6) "b" is the optical density of the PRP having incorporated therein a test compound and an aggregation inducer, and
(§7) "c" is the optical density of the PPP.

Test [2] deals with Collagen-Induced Aggregation In Rabbit Platelets. Put plainly: Inhibition of collagen-induced aggregation in rabbit platelets (aggregometer, PRP). Conditions: Oryctolagus cuniculus, Platelet, PRP 450,000 platelets/mm^3; for inhibition at 100 µM: concentration 10^-4 M; for inhibition at 10 µM: concentration 10^-5 M; for inhibition at 1 µM: concentration 10^-6 M; for inhibition at 0.01 µM: concentration 10^-8 M. Type of test: cell-based. On the procedure: as §1, §2, §3, §4, §5, §6, §7

The structures appear in SMILES notation.

In the case of `OCC(O)COc1cccc2c(O)nccc12` (centres unmarked), in test [1] (table 3), testing at 100 µM gave an inhibition of 2%, 1 µM produced 6% inhibition and the inhibition (commonly the percentage by which the read-out fell short of the control) at 0.01 µM is 0%.
As for `CC(=O)Oc1ccccc1C(=O)O` [Acetylsalicylic Acid, reference compound], in test [2] (table 5), the inhibition at 100 µM came out at 100%, testing at 10 µM gave an inhibition of 12% and 1 µM produced 8% inhibition.
On to `Nc1ncnc2c1ncn2[C@@H]1O[C@H](CO)[C@@H](O)[C@H]1O` [Adenosine, reference compound], for which, in test [1] (table 3), testing at 100 µM gave an inhibition of 70%, the inhibition at 1 µM came to 47% and testing at 0.01 µM gave an inhibition of 5%. In test [1] (table 4), this compound displayed an inhibition at 100 µM of 92%, an inhibition at 10 µM of 74%, an inhibition at 1 µM of 63% and an inhibition at 0.01 µM of 15%.
In test [2] (table 2), `O=C1CCc2c(cccc2OCC(O)CO)N1` (centres unmarked) [drawing 32] yielded an inhibition at 100 µM of 100%, an inhibition at 1 µM of 11% and an inhibition at 0.01 µM of 8%.
Take `CN1C(=O)CCc2c(OCC(O)CO)cccc21` (centres unmarked) [drawing 33]: in test [2] (table 2), the inhibition at 100 µM came to 7%, 1 µM produced 13% inhibition and the inhibition at 0.01 µM is 0%.
With `C=CCN1C(=O)CCc2c(OCC(O)CO)cccc21` (centres unmarked) [drawing 34], in test [2] (table 2), at 100 µM the inhibition was 0%, at 1 µM the inhibition was 0% and testing at 0.01 µM gave an inhibition of 0%.
Consider `O=C1CCc2cc(OCC(O)CO)ccc2N1` (centres unmarked) [drawing 35], for which, in test [2] (table 2), the inhibition at 100 µM turned out to be 100%, 1 µM produced 9% inhibition and the inhibition at 0.01 µM came to 26%.
In the case of `O=C1CCc2ccc(OCC(O)CO)cc2N1` (centres unmarked) [drawing 36], in test [2] (table 2), the inhibition at 100 µM amounted to 13%, testing at 1 µM gave an inhibition of 18% and 0.01 µM produced 4% inhibition.
For `O=C1CCc2cccc(OCC(O)CO)c2N1` (centres unmarked) [drawing 37], in that order: 25%, 7% and 21%.
With `O=C1CCc2c(cccc2OCC(O)CO)N1` (centres unmarked) [drawing 38], in test [1] (table 3), the inhibition at 100 µM was found to be 21%, the inhibition at 1 µM came to 17% and the inhibition at 0.01 µM stood at 21%.
`CN1C(=O)CCc2c(OCC(O)CO)cccc21` (centres unmarked) [drawing 39]: in test [1] (table 3), the inhibition at 100 µM came to 7%, the inhibition at 1 µM is 13% and the inhibition at 0.01 µM amounted to 0%.
The corresponding values for `C=CCN1C(=O)CCc2c(OCC(O)CO)cccc21` (centres unmarked) [drawing 40] are 0%, 0% and 0%.
In test [1] (table 3), `O=C1CCc2cc(OCC(O)CO)ccc2N1` (centres unmarked) [drawing 41] gave an inhibition at 100 µM of 100%, an inhibition at 1 µM of 9% and an inhibition at 0.01 µM of 26%.
In test [1] (table 3), `O=C1CCc2ccc(OCC(O)CO)cc2N1` (centres unmarked) [drawing 42] came in with an inhibition at 100 µM of 13%, an inhibition at 1 µM of 18% and an inhibition at 0.01 µM of 4%.
The corresponding values for `O=C1CCc2cccc(OCC(O)CO)c2N1` (centres unmarked) [drawing 43] are 25%, 7% and 21%.
As to `O=C1CCc2c(cccc2OC[C@H](O)CO)N1` [drawing 46], in test [1] (table 4), the inhibition at 100 µM turned out to be 49%, the inhibition at 10 µM came to 16%, the inhibition at 1 µM came out at 8% and the inhibition at 0.01 µM stood at 0%.
`O=C1CCc2c(cccc2OCC(O)CO)N1` (centres unmarked) [drawing 47]: in test [1] (table 4), testing at 100 µM gave an inhibition of 51%, testing at 10 µM gave an inhibition of 18%, at 1 µM the inhibition was 18% and the inhibition at 0.01 µM turned out to be 15%.
For `O=C1CCc2c(cccc2OC[C@H](O)CO)N1` [drawing 48], in test [2] (table 5), the inhibition at 100 µM stood at 95%, at 10 µM the inhibition was 3%, the inhibition at 1 µM was 3% and testing at 0.01 µM gave an inhibition of 0%.
`O=C1CCc2c(cccc2OCC(O)CO)N1` (centres unmarked) [drawing 49]: in test [2] (table 5), the inhibition at 100 µM worked out at 95%, the inhibition at 10 µM was determined as 17%, 1 µM produced 7% inhibition and the inhibition at 0.01 µM was found to be 3%.
